This assay has as its system P. falciparum 3D7 growth, pLDH absorbance. In words: P. falciparum 3D7 growth inhibition, dose response, strain 3D7 (AID 2305).

Regarding `CC(C)S(=O)(=O)N1CCN(Cc2ccc3c(c2)nc(NC(=O)c2ccsc2)n3C[C@H](O)c2ccccc2)CC1`, the IC50 (usually the point on the concentration scale where inhibition reaches its midpoint) was 270 nM. For `Oc1c(CNC2CCCCC2)cc(Cl)c2ccccc12`, the IC50 came out at 840 nM. The same measure for `O=C(/C=C/c1ccc(Cl)c(Cl)c1)NCCCCN1CCC(c2c[nH]c3ccccc23)CC1`: 860 nM; for `CN(c1ccc(NC(=O)Nc2cc(C(F)(F)F)ccc2F)cc1)c1ccnc(NCCN2CCCC2)n1`: 1150 nM. Then `COc1ccc(Cl)cc1N1CCN(CCCNC(=O)c2ccc(-c3nc4cc(Cl)c(Cl)cc4[nH]3)c(C)c2)CC1`, with 870 nM; and `CCCC(C)Nc1nc(C)cc(N[C@@H](Cc2ccccc2)C(=O)NCc2ccc(C)cc2)n1` (some centres undefined), with 1120 nM. `Cc1cccc2[nH]c(-c3cccc(-c4ccc(NC(=O)Cc5ccon5)cc4)c3)nc12` came in with an IC50 of 1090 nM. `COc1cc2nc(NCc3ccccc3)nc(NCc3ccccc3)c2cc1OC` gave an IC50 of 150 nM. In turn, `N/C(=N\c1ncccn1)Nc1cccc(Cc2ccccc2)n1` had an IC50 of 930 nM. In turn, `Cc1cc(N[C@@H](Cc2ccccc2)C(=O)NCc2cccc(F)c2)nc(NCCc2ccccc2)n1` displayed an IC50 of 1020 nM.

Take `O=C(NC(Nc1ccc([N+](=O)[O-])cc1)C(Cl)(Cl)Cl)c1cccc(Cl)c1` (centres undefined): the IC50 is 860 nM.

On to `CC1(C)C(=O)Nc2ccc3c(c21)CC1SC(=O)NN=C31` (centres undefined), for which the IC50 turned out to be 1490 nM. Then `Clc1ccc(NC(=NCCCCCCCN=C(Nc2ccc(Cl)cc2)Nc2ccc(Cl)cc2)Nc2ccc(Cl)cc2)cc1`, with 320 nM. `CS(=O)(=O)c1ccc(CCNCc2ccc(-c3ccc(CNC4CCN(Cc5ccccc5)CC4)cc3)nc2)cc1` gave a concentration for half-maximal inhibition (IC50) of 250 nM. `Cc1cc(Nc2ccc(O)cc2)nc2cccc(O)c12` registered an IC50 of 740 nM.

For the compound `O=c1cc(NC[C@H]2CCC[C@@H]2NCc2cc(Br)cc(Br)c2)[nH]c2ccccc12`, the IC50 turned out to be 680 nM. As for `CC(C)c1ccc(N2CCN(CCCCNC(=O)c3ccc(NC(=O)c4cc(Cl)cc(Cl)c4)cc3)CC2)cc1`, the IC50 was determined as 160 nM. Consider `Oc1cc2ccccc2cc1CNC1CCCCC1`, for which the IC50 stood at 590 nM. The same measure for `CCCc1ccc(NC(=O)c2cccc(CN3CCCN(Cc4cccc(O)c4)CC3)c2)cc1`: 750 nM; for `N#Cc1ccc(N2CCN(Cc3cccc(-c4cccc(-c5nc6ccc(F)cc6[nH]5)c4)c3)CC2)nc1`: 960 nM; for `CCN1CCN(c2cc(C)c3cc(NC(=O)c4ccc(OC)c(OC)c4)ccc3n2)CC1`: 1030 nM. As to `COc1ccc(CN(C)Cc2cc(C(C)C)c(C)cc2O)cc1F`, the IC50 amounted to 650 nM. Then `COc1ccc(-c2ccc(NC(=O)c3ccc(C#N)cc3)cc2)cc1CN1CCC(O)CC1`, with 580 nM. Then `COc1ccc(NC(=O)CCNc2ccnc(NCCc3ccc(F)cc3)n2)cc1`, with 990 nM; and `COC(=O)c1ccc(NC(=O)c2ccc(CCN3CCC(c4nc(COCC(F)(F)F)c(-c5ccc(F)cc5)o4)CC3)cc2)cc1`, with 1040 nM.

The compound `CCCc1cc(OC)c(C[C@@H]2c3cc(O)c(Cl)cc3CCN2C)cc1OC` registered an IC50 of 720 nM. `COCCCNc1sc(S(=O)(=O)c2ccccc2)nc1S(=O)(=O)c1ccc(C)cc1` had an IC50 of 800 nM.

Regarding `O=C(Nc1ccc(O)c(-c2nc3ccccc3[nH]2)c1)c1ccc([N+](=O)[O-])cc1`, the IC50 amounted to 320 nM. The same measure for `Cc1ccc(Nc2nc3cc(Nc4ccnc(Nc5cccc(CS(C)(=O)=O)c5)n4)ccc3o2)cc1`: 920 nM; for `O=C(NCCN1CCCC1)c1cc(-c2ccc(Cl)c(O)c2)c(-c2ccncc2)o1`: 1630 nM. In turn, `CC(NC(=O)c1ccc(O)c(-c2ccc(Cl)c(Cl)c2)c1)C(=O)NCCN1CCOCC1` (centres undefined) displayed an IC50 of 960 nM. Compound `O=C(OCc1ccccc1)N1CCc2c([nH]c3ccccc23)C1CCC(F)(F)F` (centres undefined) had an IC50 of 420 nM. Then `CN(c1ccc(C(=O)N[C@@H](CCC(=O)O)C(=O)O)cc1)S(=O)(=O)c1ccc2nc(N)[nH]c(=O)c2c1`, with 150 nM; and `COc1cccc(NC(=O)Nc2ccc(-c3oc(C(=O)NCC(c4ccccc4)N(C)C)cc3-c3ccncc3)cc2)c1` (centres undefined), with 1830 nM.
